This is an account of results in patent US8158828B2, “Nuclear receptor binding agents” (priority 2005, dated 2012).

Entries after “also recorded” stand apart in the source; their conditions may differ.

One series concerns uterus. Kind of series: In vivo estrogenic activity, uterine weight. To be noted: female rats; for estrogenic activity in terms of uterine weight: compound alone. Further details: species or system rat. Here is the method:
Rats that were administered the vehicle alone served as controls.

Another series concerns the target T1, ER-β (Rattus norvegicus, UniProt Q62986).
T1 construct: expressed in transfected cells; host or cells: COS or 293 cells
The series is described as follows: ER-β transactivation, ERE-LUC in COS or 293 cells. It is filed as cell-based. Further details: % estardiol activity, ER-β: dose or concentration left out as unconfirmed. To be noted: for ER-β LUC expression, compound alone / inhibition of E2-stimulated LUC expression, ER-β: COS or 293 cells; for inhibition of E2-stimulated LUC expression, ER-β: with E2.

Another series concerns PC-3 cells. Kind of series: Androgen independent prostate cancer cell growth. The class given is cell-based. As to conditions: for PC-3 cell growth inhibition: 72 hrs; for PC-3 growth inhibition, qualitative grading: in vitro, data not shown. Here is the method: PC-3 cells were plated in RPMI+10% csFBS at 6000 cells per well of a 96 well plate. Medium was changed to RPMI+1% csFBS without phenol red and then treated for 72 hrs with increasing concentrations of SERMs.
The prostate cancer cell line PC-3 was plated in RPMI+10% csFBS at 6000 cells per well of a 96 well plate. Medium was changed to RPMI+1% csFBS without phenol red and cells were treated for 72 hrs with increasing concentrations of SERMs.
PC-3 growth inhibition was determined qualitatively, in vitro, and represented as a grading system based on the ability of the SERMs to inhibit growth. The number −4 is for compounds that induced 100% growth inhibition at 1 uM, −3 for compounds that inhibit growth by about 75-90%, −2 for about 50-70% and −1 for inhibition less than 50% growth.

Series [1] concerns TRAP positive multinucleated osteoclasts. Kind of series: TRAP positive multinucleated osteoclasts from bone marrow cells. It is filed as cell-based, rat. As to conditions: RANKL and GMCSF, 12 days. Here is the method:
FIG. 7: Effect of the indicated compounds on TRAP positive multinucleated osteoclasts. Bone marrow cells from rat femur was cultured in Alpha MEM+10% csFBS without phenol red in the presence or absence of 30 ng/ml RANKL and 10 ng/ml GMCSF. The cells were treated for 12 days and were stained for tartarate resistant acid phosphatase activity (TRAP) and multinucleated osteoclasts were counted.
Bone marrow cells isolated from rat femur were cultured in Alpha MEM without phenol red+10% sterile FBS without phenol red in the presence or absence of […] RANKL and 10 ng/ml GMCSF. The cells were treated for 12 days were stained for tartarate resistant acid phosphatase activity (TRAP) positive multinucleated osteoclasts and were counted.

Series [2] is described as follows: Metabolic stability in human liver microsomes. To be noted: 1 μM substrate, 0.5 mg/mL microsomes. Here is the method: Each substrate or reference control was dissolved at a concentration of 10 mM in DMSO, from which a 5 μM spiking solution was prepared by dilution in water. Substrates (1 μM) were incubated in the presence of human liver microsomes (Xenotech LLC, Kansas City Mo.) at 0.5 mg/mL fortified with an NADPH regenerating system at 37° C. and pH 7.4. The NADPH regenerating system consisted of glucose-6-phosphate dehydrogenase (1 units/mL) in 0.05M K2HPO4. Duplicate incubations were performed in 96-well polypropylene cluster tubes in a final volume of 250 μL per reaction. At 0, 2, 4, 6, 10, 30, and 60 minutes a stop solution (300 μL acetonitrile) was added to aliquots of the reaction mixture. Precipitated protein was removed by centrifugation (3000 rpm for 15 minutes) and the supernatants were transferred to clean 96-well plates for analysis.
The samples were injected onto a Phenomenex Luna hexylphenyl 50×2 mm i.d. 5 uM, column fitted with a guard column. An isocratic mobile phase consisting of 50% acetonitrile and 0.1% formic acid in water was used at a flow rate of 0.3 mL/min. The protonated molecular ion (M+H)^+ of the analyte was monitored by MDS/Sciex API 4000QTrap triple quadrupole mass spectrometer using electrospray positive mode ionization with a temperature of 500° C. and a spray voltage of 4000V. Total analysis time was 1.5 min per sample.
Metabolic stability was defined as the amount of substrate metabolized by the incubation with hepatic microsomes and expressed as a percentage of the initial amount of substrate (% remaining) based on peak area. Initial substrate concentration for each analyte was 1 μM. The initial peak area of each substrate was determined at time zero and metabolic stability was assessed based on the change in analyte peak area from time 0 min to a single fixed timepoint for each sample (2-60 min, representative timepoints are shown in Table 2 below).
Background: Microsomes from liver hold many membrane-bound enzymes, among them those of drug oxidation.

T1 sequence (Q62986 whole entry): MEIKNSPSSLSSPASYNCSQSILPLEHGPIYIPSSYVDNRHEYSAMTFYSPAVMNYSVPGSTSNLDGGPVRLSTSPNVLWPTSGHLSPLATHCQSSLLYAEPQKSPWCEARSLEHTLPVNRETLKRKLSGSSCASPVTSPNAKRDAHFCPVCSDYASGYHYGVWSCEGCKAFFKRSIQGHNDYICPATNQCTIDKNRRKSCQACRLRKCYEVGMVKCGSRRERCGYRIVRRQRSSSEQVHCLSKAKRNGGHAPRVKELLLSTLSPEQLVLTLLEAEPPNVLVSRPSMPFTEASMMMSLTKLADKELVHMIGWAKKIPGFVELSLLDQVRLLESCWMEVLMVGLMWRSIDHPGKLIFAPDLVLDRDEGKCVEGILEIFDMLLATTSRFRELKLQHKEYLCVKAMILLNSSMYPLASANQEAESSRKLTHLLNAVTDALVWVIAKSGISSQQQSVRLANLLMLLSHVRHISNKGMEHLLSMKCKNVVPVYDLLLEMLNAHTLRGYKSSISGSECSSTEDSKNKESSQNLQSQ

For the compound `O=C(c1ccccc1)N(c1ccc(O)cc1)c1ccc(OCCN2CCCCC2)cc1` [Compound 4a, N-(4-hydroxyphenyl)-N-[4-(2-piperidin-1-ylethoxy)-phenyl]-benzamide], the “estrogenic activity in terms of uterine weight” value with uterus is recorded as “exhibited estrogenic activity, in terms of increased uterine weight; also recorded: exhibited estrogenic activity, in vivo”. For the same compound, the “uterine weight increase, with ICI-182,780” value in the series on uterus (with ICI-182,780) is “ICI-182,780 reversed 4a and 4g effects on uterine weight increase”. In addition, the “uterine weight, coadministered with estrogen” value in the series with uterus (with estrogen) is on record as “an increase in uterine weight was observed”. On ER-β, the “ER-β LUC expression, compound alone” value is listed as “neither 4a nor 4h stimulated LUC expression” and the “inhibition of E2-stimulated LUC expression, ER-β” value is recorded as “inhibited E2-stimulated LUC expression”. In the series on PC-3 cells (concentration not given), the “PC-3 cell growth inhibition” value is given as “about 50%”. The “PC-3 growth inhibition, qualitative grading” value with PC-3 cells is recorded as −1 (−1 for inhibition less than 50% growth). The “osteoclast differentiation / osteoclast activity” value in series [1] is listed as “minimally but dose-dependently suppressed the osteoclast differentiation”. Further, in series [2], the “% Remaining 0 min” value stood at 100%, the “% Remaining 10 min” value came out at 105%, the “% Remaining 30 min” value was 95% and the “% Remaining 60 min” value was found to be 74%.

On to `Cl.O=C(c1ccc(F)cc1)N(c1ccc(O)cc1)c1ccc(OCCN2CCCCC2)cc1` [Compound 4h, N-(4-hydroxyphenyl)-N-[4-(2-piperidin-1-ylethoxy)-phenyl]-4-fluroro-benzamide hydrochloride], for which the “estrogenic activity in terms of uterine weight” value with uterus is “exhibited no estrogenic, or anti-estrogenic activity in uterus”. For the same compound, on ER-β, the “% estardiol activity, ER-β” value turned out to be 29.1%; the “ER-β LUC expression, compound alone” value is “neither 4a nor 4h stimulated LUC expression”; the “inhibition of E2-stimulated LUC expression, ER-β” value was “inhibited E2-stimulated LUC expression”. The “PC-3 cell growth inhibition” value in the series with PC-3 cells (1 μM) is on record as 75%. Also, the “PC-3 growth inhibition, qualitative grading” value with PC-3 cells is on record as −2 (−2 for about 50-70%). Further, the “osteoclast differentiation / osteoclast activity” value in series [1] (hydrochloride) was “minimally but dose-dependently suppressed the osteoclast differentiation; also recorded: highly suppressive of osteoclast activity”. Besides, in series [2], the “% Remaining 0 min” value worked out at 100%, the “% Remaining 10 min” value was determined as 99%, the “% Remaining 30 min” value turned out to be 86% and the “% Remaining 60 min” value stood at 70%.
